Test results as given in ChEMBL document CHEMBL3085665, “Gallic acid is the major component of grape seed extract that inhibits amyloid fibril formation” (Bioorg Med Chem Lett, 2013).
Active and inactive are the calls of the source. The rule behind the calls is not given here.

Assays:
[1] = species on record: Homo sapiens; experiment: Inhibition of reduced carboxymethylated-kappa-casein (unknown origin) conversion to amyloid fibrils at 1:2 protein to compound molar ratio after 1000 mins by thioflavin T fluorescence assay relative to control
[2] = species on record: Homo sapiens; experiment: Inhibition of reduced carboxymethylated-kappa-casein (unknown origin) conversion to amyloid fibrils at 0.1:1 to 2:1 compound to protein molar ratio after 1000 mins by thioflavin T fluorescence assay
[3] = species on record: Homo sapiens; experiment: Inhibition of reduced carboxymethylated-kappa-casein (unknown origin) conversion to amyloid fibrils at 1:0.1 protein to compound molar ratio after 1000 mins by thioflavin T fluorescence assay relative to control
[4] = Effect on RCM-kappa-casein-induced cytotoxicity against rat PC12 cells assessed as increase in cell viability at 1:2 protein to compound molar ratio after 48 hrs by MTT assay relative to control; format: functional, PC-12
[5] = species on record: Homo sapiens; experiment: Inhibition of reduced carboxymethylated-kappa-casein (unknown origin) conversion to amyloid fibrils at 1:0.5 protein to compound molar ratio after 1000 mins by thioflavin T fluorescence assay relative to control
[6] = species on record: Homo sapiens; experiment: Inhibition of reduced carboxymethylated-kappa-casein (unknown origin) conversion to amyloid fibrils at 1:1 protein to compound molar ratio after 1000 mins by thioflavin T fluorescence assay relative to control
[7] = species on record: Homo sapiens; experiment: Inhibition of reduced carboxymethylated-kappa-casein (unknown origin) conversion to amyloid fibrils assessed as decrease in number of long, unbranched and mature amyloid fibrils at 1:2 protein to compound molar ratio after 1000 mins by transmission electron microscopic analysis
[8] = target: Amyloid-beta precursor protein (Homo sapiens) (UniProt P05067); experiment: Inhibition of amyloid beta (1 to 40) (unknown origin) aggregation at 1:0.1 to 1:2 protein to compound molar ratio after 20 hrs by transmission electron microscopic analysis
[9] = test system: PC-12; experiment: Effect on RCM-kappa-casein-induced cytotoxicity against rat PC12 cells at 1:0.1 to 1:0.5 protein to compound molar ratio after 48 hrs by MTT assay; format: functional, cell-based
[10] = Cytotoxicity against rat PC12 cells assessed as cell viability at 5 uM after 48 hrs by MTT assay; format: cell-based; settings: pc-12, 48 h
[11] = species on record: Homo sapiens; experiment: (§1) Inhibition of reduced carboxymethylated-kappa-casein (unknown origin) conversion to amyloid fibrils after 1000 mins by thioflavin T fluorescence assay
[12] = as §1; set-up: species or system Homo sapiens
[13] = Reduction in RCM-kappa-casein-induced cytotoxicity against rat PC12 cells after 48 hrs by MTT assay; format: functional, cell-based; settings: PC-12
[14] = species on record: Homo sapiens; experiment: Binding affinity to reduced carboxymethylated-kappa-casein (unknown origin) at 1:2 protein to compound molar ratio after 20 hrs by far-UV-CD spectroscopic analysis
[15] = target: Amyloid-beta precursor protein (Homo sapiens) (UniProt P05067); experiment: Inhibition of amyloid beta (1 to 40) (unknown origin) aggregation at 1:0.1 to 1:2 protein to compound molar ratio up to 10 hrs by thioflavin T fluorescence assay

Amyloid-beta precursor protein (Homo sapiens), sequence (P05067 whole entry): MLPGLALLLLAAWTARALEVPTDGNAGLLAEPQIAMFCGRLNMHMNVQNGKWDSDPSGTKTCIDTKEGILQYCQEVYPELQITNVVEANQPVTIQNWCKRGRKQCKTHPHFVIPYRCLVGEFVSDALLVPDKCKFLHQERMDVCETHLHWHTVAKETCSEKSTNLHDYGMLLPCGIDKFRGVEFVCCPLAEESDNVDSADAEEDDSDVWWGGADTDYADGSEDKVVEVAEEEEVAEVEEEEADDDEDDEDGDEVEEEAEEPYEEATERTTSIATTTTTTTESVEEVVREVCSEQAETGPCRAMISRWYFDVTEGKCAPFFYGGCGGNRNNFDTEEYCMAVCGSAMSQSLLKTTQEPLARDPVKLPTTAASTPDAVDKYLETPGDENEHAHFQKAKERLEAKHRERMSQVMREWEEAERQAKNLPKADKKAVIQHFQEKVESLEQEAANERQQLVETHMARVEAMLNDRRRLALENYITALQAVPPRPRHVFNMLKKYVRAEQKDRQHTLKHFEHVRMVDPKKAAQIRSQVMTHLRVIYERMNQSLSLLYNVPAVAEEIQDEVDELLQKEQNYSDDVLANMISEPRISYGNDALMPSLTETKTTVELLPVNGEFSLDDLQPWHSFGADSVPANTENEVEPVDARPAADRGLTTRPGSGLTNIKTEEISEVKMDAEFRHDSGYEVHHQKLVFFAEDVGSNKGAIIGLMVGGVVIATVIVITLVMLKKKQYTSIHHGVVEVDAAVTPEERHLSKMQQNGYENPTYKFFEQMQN

Molecule `C[C@@H]1O[C@@H](OC[C@H]2O[C@@H](Oc3cc4c(O)cc(O)cc4[o+]c3-c3ccc(O)c(O)c3)[C@H](O)[C@@H](O)[C@@H]2O)[C@H](O)[C@H](O)[C@H]1O` has an inhibition [1] of 54%.
In the case of `Oc1cc(O)c2c(c1)OC(c1ccc(O)c(O)c1)C(O)C2` (configuration not stated), the inhibition [2] is reported as “inactive”.
In the case of `Oc1cc(O)c2c(c1)O[C@H](c1ccc(O)c(O)c1)[C@H](O)C2`, the inhibition [2] is reported as “inactive”.
`O=C(O)c1cc(O)c(O)c(O)c1` [GALLIC ACID] gave an inhibition [3] of 3%, an Activity [4] of 88% and an inhibition [5] of 54%. For the same molecule, the inhibition [6] was 87%, the inhibition [1] was 98% and the inhibition [7] was “Active”. The inhibition [8] was “Active”, the Activity [9] was “inactive” and the Activity [10] was “Non-toxic”. The inhibition [11] was “Dose-dependent effect”, the IC50 [12] was 7.7 µM and the Activity [13] was “Dose-dependent effect”. For the same molecule, the Activity [14] was “Active” and the inhibition [15] was “Active”.
